Measured values: ChEMBL document CHEMBL4177750, “Imidazopyrazinones (IPYs): Non-Quinolone Bacterial Topoisomerase Inhibitors Showing Partial Cross-Resistance with Quinolones” (J Med Chem, 2018)
≈ marks a conversion by molar mass, not a printed value. Calls of active or inactive are those of the source. No cut-off for these calls is given here.

How the values were obtained:
[1] = tested on: Pseudomonas aeruginosa; test: Antibacterial activity against Pseudomonas aeruginosa PAO1 after 20 to 22 hrs; format: functional
[2] = tested on: Escherichia coli; test: Antibacterial activity against tolC-deficient fluoroquinolones-resistant Escherichia coli W4753 clinical isolate harboring DNA gyrase S83L/D87N/ParC S80I/ParE S458A mutant after 20 to 22 hrs
[3] = tested on: Staphylococcus aureus; test: Antibacterial activity against methicillin-resistant Staphylococcus aureus ATCC 33592 after 20 to 22 hrs; format: functional
[4] = Drug degradation in DMSO solution in presence of glutathione measured within 1 hr; format: physicochemical; conditions: DMSO solution with glutathione; read-out: Drug degradation
[5] = tested on: Staphylococcus aureus; test: Ratio of MIC for methicillin-resistant Staphylococcus aureus ATCC 33592 in presence of 50% mouse serum to MIC for methicillin-resistant Staphylococcus aureus ATCC 33592 in absence of 50% mouse serum; format: functional
[6] = Metabolic stability in mouse liver microsomes; format: ADME, microsome
[7] = tested on: Staphylococcus aureus; test: Ratio of MIC for methicillin-resistant Staphylococcus aureus ATCC 33592 in presence of 50% calf fetal serum to MIC for methicillin-resistant Staphylococcus aureus ATCC 33592 in absence of 50% calf fetal serum; format: functional
[8] = Metabolic stability in human liver microsomes; format: ADME, microsome
[9] = tested on: Escherichia coli; test: Antibacterial activity against ESBL producing Escherichia coli ATCC 35218 after 20 to 22 hrs; format: functional
[10] = target: hERG (KCNH2) (Homo sapiens, UniProt Q12809); test: Inhibition of human ERG transfected in CHO cells at 10 uM by patch clamp method relative to control; format: cell-based; conditions: CHO cells transfected with human ERG
[11] = tested on: Escherichia coli; test: Antibacterial activity against tolC-deficient fluoroquinolones-sensitive Escherichia coli JC7623 clinical isolate harboring wild type DNA gyrase after 20 to 22 hrs
[12] = tested on: Pseudomonas aeruginosa; test: Antibacterial activity against Pseudomonas aeruginosa PAO750 harboring mexAB-oprM/mexCD-oprJ/mexEF-oprN/mexXY/opmH/mexJK/pscC deletion mutant after 20 to 22 hrs; format: functional
[13] = Permeability across human Caco2 cells; format: ADME, cell-based; conditions: Caco-2
[14] = Drug degradation in DMSO solution in presence of mercaptoethanol measured within 1 hr; format: physicochemical; conditions: DMSO solution with mercaptoethanol; read-out: Drug degradation
[15] = tested on: Escherichia coli; test: Antibacterial activity against hyperpermeable Escherichia coli D22 harboring LpxC mutant after 20 to 22 hrs
[16] = Solubility of the compound in water; format: physicochemical; conditions: buffer
[17] = Cytotoxicity against human HepG2 cells assessed as decrease in cell viability after 40 hrs by Celltiter Glo assay
[18] = tested on: Escherichia coli; test: Antibacterial activity against tolC-deficient Escherichia coli K-12 MG1655 after 20 to 22 hrs; format: functional; conditions: K-12 substr. MG1655
[19] = tested on: Escherichia coli; test: Antibacterial activity against Escherichia coli K-12 MG1655 after 20 to 22 hrs; conditions: K-12 substr. MG1655
[20] = Chemical stability in pH 7.4 buffer solution; format: physicochemical
[21] = tested on: Staphylococcus aureus; test: Antibacterial activity against methicillin-resistant Staphylococcus aureus ATCC 33592 after 20 to 22 hrs in presence of 50% calf fetal serum; format: functional, organism-based
[22] = tested on: Staphylococcus aureus; test: Antibacterial activity against methicillin-resistant Staphylococcus aureus ATCC 33592 after 20 to 22 hrs in presence of 50% mouse serum; format: functional, organism-based
[23] = tested on: L5178Y; test: Genotoxicity in mouse L5178Y cells after 3 hrs in presence of S9 fraction by micronucleus test; format: toxicity, cell-based; conditions: s9, 3 h
[24] = Drug metabolism in mouse liver microsomes at 5 uM after 20 mins in presence of NADPH; format: ADME, microsome; conditions: read-out: Drug metabolism
[25] = Drug metabolism in rat liver microsomes at 5 uM after 20 mins in presence of NADPH; format: ADME, microsome; conditions: read-out: Drug metabolism
[26] = Metabolic stability in mouse plasma at 1 uM after 4 hrs; format: ADME, cell-free; conditions: read-out: Stability
[27] = Drug metabolism in human liver microsomes at 5 uM after 20 mins in presence of NADPH; format: ADME, microsome; conditions: read-out: Drug metabolism
[28] = tested on: L5178Y; test: Genotoxicity in mouse L5178Y cells after 23 hrs in absence of S9 fraction by micronucleus test; format: toxicity, cell-based
[29] = Metabolic stability in rat plasma at 1 uM after 4 hrs; format: ADME, cell-free; conditions: read-out: Stability
[30] = tested on: Klebsiella pneumoniae; test: Antibacterial activity against Klebsiella pneumoniae 1161486 harboring GyrA S83F/D87V/ParC S80I triple mutant after 20 to 22 hrs; format: functional
[31] = tested on: Staphylococcus aureus; test: Antibacterial activity against Staphylococcus aureus RN4220 harboring GyrB D437N mutant after 20 to 22 hrs; format: functional
[32] = tested on: Klebsiella pneumoniae; test: Antibacterial activity against Klebsiella pneumoniae 1161486 harboring GyrA S83I mutant after 20 to 22 hrs; format: functional
[33] = tested on: Staphylococcus aureus; test: Antibacterial activity against Staphylococcus aureus RN4220 harboring GyrA D83N/ParC D79N double mutant after 20 to 22 hrs; format: functional
[34] = tested on: Staphylococcus aureus; test: Antibacterial activity against Staphylococcus aureus RN4220 harboring ParC S80F/GyrA S84L double mutant after 20 to 22 hrs; format: functional
[35] = tested on: Klebsiella pneumoniae; test: Antibacterial activity against wild type Klebsiella pneumoniae 1161486 after 20 to 22 hrs; format: functional
[36] = tested on: Klebsiella pneumoniae; test: Antibacterial activity against Klebsiella pneumoniae 1161486 harboring GyrA S83I/ParC S80I double mutant after 20 to 22 hrs; format: functional
[37] = tested on: Staphylococcus aureus; test: Antibacterial activity against Staphylococcus aureus RN4220 harboring GyrA D83N mutant after 20 to 22 hrs; format: functional
[38] = tested on: Staphylococcus aureus; test: Antibacterial activity against Staphylococcus aureus RN4220 harboring ParC S80F mutant after 20 to 22 hrs; format: functional
[39] = tested on: Staphylococcus aureus; test: Antibacterial activity against wild type Staphylococcus aureus RN4220 after 20 to 22 hrs; format: functional

hERG (KCNH2), sequence (Q12809 whole entry): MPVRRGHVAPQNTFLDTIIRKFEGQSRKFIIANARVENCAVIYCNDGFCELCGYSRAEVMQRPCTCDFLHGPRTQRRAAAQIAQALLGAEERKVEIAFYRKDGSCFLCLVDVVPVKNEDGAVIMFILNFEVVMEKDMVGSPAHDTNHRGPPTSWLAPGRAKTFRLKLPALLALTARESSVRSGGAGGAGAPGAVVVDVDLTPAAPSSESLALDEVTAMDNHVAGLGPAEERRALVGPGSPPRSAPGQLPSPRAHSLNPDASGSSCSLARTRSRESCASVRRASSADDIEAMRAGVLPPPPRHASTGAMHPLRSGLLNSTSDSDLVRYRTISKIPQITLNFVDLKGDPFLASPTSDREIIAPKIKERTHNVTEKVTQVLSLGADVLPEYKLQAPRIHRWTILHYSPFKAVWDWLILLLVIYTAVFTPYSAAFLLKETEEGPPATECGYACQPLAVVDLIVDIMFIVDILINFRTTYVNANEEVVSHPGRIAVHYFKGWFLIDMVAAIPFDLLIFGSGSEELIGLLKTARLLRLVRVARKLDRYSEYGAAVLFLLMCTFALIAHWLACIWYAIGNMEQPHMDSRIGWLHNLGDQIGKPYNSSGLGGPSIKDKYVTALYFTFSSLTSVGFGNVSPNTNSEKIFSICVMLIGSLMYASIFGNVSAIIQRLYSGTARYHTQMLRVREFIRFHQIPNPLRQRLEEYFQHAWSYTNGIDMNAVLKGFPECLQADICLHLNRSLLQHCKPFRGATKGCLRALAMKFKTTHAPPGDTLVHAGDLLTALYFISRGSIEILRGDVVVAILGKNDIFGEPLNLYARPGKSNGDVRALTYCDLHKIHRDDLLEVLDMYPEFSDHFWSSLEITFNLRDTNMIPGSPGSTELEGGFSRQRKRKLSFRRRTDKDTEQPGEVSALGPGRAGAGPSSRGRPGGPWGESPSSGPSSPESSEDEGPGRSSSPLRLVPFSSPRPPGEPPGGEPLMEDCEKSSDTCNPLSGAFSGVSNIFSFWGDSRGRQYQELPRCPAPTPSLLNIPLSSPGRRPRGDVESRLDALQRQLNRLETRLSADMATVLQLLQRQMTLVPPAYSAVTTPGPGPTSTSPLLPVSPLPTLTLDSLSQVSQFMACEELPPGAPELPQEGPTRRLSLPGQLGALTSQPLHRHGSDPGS

Compound	MIC [1] [µg/mL]	MIC [2] [µg/mL]	MIC [3] [µg/mL]	MIC [9] [µg/mL]	MIC [11] [µg/mL]	MIC [12] [µg/mL]	MIC [15] [µg/mL]	MIC [18] [µg/mL]	MIC [19] [µg/mL]	further results
CC(=O)Nc1ccc(/C=c2\c3ccccc3c3c2n2ccnc2c(=O)n3C)cc1	> 64	2 (≈ 5.23 µM)	0.25 (≈ 0.654 µM)	> 64	0.063 (≈ 0.165 µM)	> 64	> 64	< 0.125	> 64	degraded at 1 h [4]: > 50%; Ratio [5]: >32; Stability [6]: Unstable; Ratio [7]: >32; Stability [8]: Unstable; inhibition at 10 µM [10]: > 50%; permeability [13]: Impermeable; degraded at 1 h [14]: > 50%; solubility [16]: Insoluble; CC50 at 40 h [17]: 8.4 µM; Stability [20]: Stable
N[C@H]1CCN(c2cc3c(cc2F)c(=O)n(N)c(=O)n3C2CC2)C1	32 (≈ 100 µM)	–	2 (≈ 6.26 µM)	1 (≈ 3.13 µM)	–	< 0.125	0.5 (≈ 1.57 µM)	< 0.125	1 (≈ 3.13 µM)	–
O=c1c2ncnn2c2cc(F)c(-c3ccncc3)cc2n1C1CC1	> 64	–	16 (≈ 49.8 µM)	32 (≈ 99.6 µM)	–	32 (≈ 99.6 µM)	32 (≈ 99.6 µM)	< 0.125	> 64	–
N[C@H]1CCN(c2cc3c(cc2F)c2nc[nH]c2c(=O)n3C2CC2)C1	64 (≈ 196 µM)	–	16 (≈ 48.9 µM)	16 (≈ 48.9 µM)	–	0.5 (≈ 1.53 µM)	16 (≈ 48.9 µM)	0.5 (≈ 1.53 µM)	64 (≈ 196 µM)	Activity [21]: Active; Activity [22]: Active
CNc1cc(=O)n(C)c2c1/C(=C/c1ccncc1)c1ccccc1-2	–	2 (≈ 6.34 µM)	–	–	1 (≈ 3.17 µM)	–	–	–	–	–
O=c1c2nccn2c2cc(F)c(-c3ccncc3)cc2n1C1CC1	> 64	0.5 (≈ 1.56 µM)	4 (≈ 12.5 µM)	16 (≈ 49.9 µM)	0.063 (≈ 0.197 µM)	8 (≈ 25 µM)	–	< 0.125	32 (≈ 99.9 µM)	Activity [23]: Toxic; metabolised at 20 min, 5 µM [24]: 81%; metabolised at 20 min, 5 µM [25]: 68%; remaining at 4 h, 1 µM [26]: 80 to 120%; metabolised at 20 min, 5 µM [27]: 13%; Activity [21]: Active; Activity [22]: Active; Activity [28]: Toxic; remaining at 4 h, 1 µM [29]: 80 to 120%
O=C(O)c1cn(C2CC2)c2cc(N3CCNCC3)c(F)cc2c1=O [CIPROFLOXACIN]	–	–	–	< 0.125	–	< 0.125	< 0.125	< 0.125	–	MIC [30]: 8 µg/mL (≈ 24.1 µM); MIC [31]: 0.25 µg/mL (≈ 0.754 µM); MIC [32]: 1 µg/mL (≈ 3.02 µM); MIC [33]: 1 µg/mL (≈ 3.02 µM); MIC [34]: 64 µg/mL (≈ 193 µM); MIC [35]: < 0.063 µg/mL; MIC [36]: 8 µg/mL (≈ 24.1 µM); MIC [37]: 0.25 µg/mL (≈ 0.754 µM); MIC [38]: 1 to 2 µg/mL (≈ 3.02 to 6.04 µM); MIC [39]: 0.25 µg/mL (≈ 0.754 µM)
